Experimental data taken from patent US10131652B2, “Pyrimidinyloxy benzene derivatives as herbicides” (E. I. DU PONT DE NEMOURS AND COMPANY, priority 2014, dated 2018).

Key:
Type in all cases: in vivo
[1] = system: Italian ryegrass (Lolium multiflorum); experiment: Test B pre-/postemergence plant response
Outline: (§1)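 Steps: plant seeds in loam soil–sand mix; spray soil preemergence, and in parallel spray 2–10 cm one- to two-leaf plants postemergence; hold ~10 days in greenhouse; visually rate injury against untreated controls (0 = no effect, 100 = complete control).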

[2] = system: wheat (Triticum aestivum); experiment: Test B pre-/postemergence plant response
Outline: as §1

kochia (Kochia scoparia) = experiment: Test B pre-/postemergence plant response
Outline: as §1

[3] = system: giant foxtail (Setaria faberii); experiment: Test B pre-/postemergence plant response
Outline: as §1

[4] = system: ragweed (common ragweed, Ambrosia elatior); experiment: Test B pre-/postemergence plant response
Outline: as §1

[5] = system: barnyardgrass (Echinochloa crus-galli); experiment: Test B pre-/postemergence plant response
Outline: as §1

corn (Zea mays) = experiment: Test B pre-/postemergence plant response
Outline: as §1

[6] = system: pigweed (Amaranthus retroflexus); experiment: Test B pre-/postemergence plant response
Outline: as §1

[7] = system: galium (catchweed bedstraw, Galium aparine); experiment: Test B postemergence plant response
Outline: (§2)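 Visual injury rating, 0–100 (0 = no effect, 100 = complete control), vs untreated controls ~10 days after postemergence spray; greenhouse; potted loam soil/sand; plants 2–10 cm, 1–2 leaf stage.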

[8] = system: blackgrass (Alopecurus myosuroides); experiment: Test B postemergence plant response
Outline: as §2

[9] = system: ducksalad (Heteranthera limosa); experiment: Test C flooded paddy test plant response; conditions: Flood, 250 g ai/ha; scale of 0 to 100 where 0 is no effect and 100 is complete control; 13 to 15 days
Outline: (§3)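 Plants grown to 2-leaf stage, flooded 3 cm above soil; compounds applied directly into paddy water, depth kept throughout. Visual rating versus controls after 13 to 15 days in greenhouse, 0 (no effect) to 100 (complete control).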

[10] = system: barnyardgrass (Echinochloa crus-galli); experiment: Test C flooded paddy test plant response; conditions: Flood, 250 g ai/ha; scale of 0 to 100 where 0 is no effect and 100 is complete control; 13 to 15 days
Outline: as §3

rice (Oryza sativa) = experiment: Test C flooded paddy test plant response; conditions: Flood, 250 g ai/ha; scale of 0 to 100 where 0 is no effect and 100 is complete control; 13 to 15 days
Outline: as §3

[11] = system: small-flower umbrella sedge (Cyperus difformis); experiment: Test C flooded paddy test plant response; conditions: Flood, 250 g ai/ha; scale of 0 to 100 where 0 is no effect and 100 is complete control; 13 to 15 days
Outline: as §3

[12] = 31 g ai/ha, Preemergence, 0 to 100 scale where 0 is no effect and 100 is complete control
[13] = 125 g ai/ha, postemergence, 0 to 100 scale, 0 no effect, 100 complete control
[14] = Postemergence, 31 g ai/ha, 0 to 100 scale (0 no effect, 100 complete control)
[15] = Preemergence, 125 g ai/ha, 0 to 100 scale (0 no effect, 100 complete control)

| Compound | Plant response rating, Ryegrass, Italian [1, 12] | Plant response rating, Ryegrass, Italian [1, 13] | Plant response rating, Ryegrass, Italian [1, 14] | Ryegrass, Italian plant response rating [1, 15] | Plant response rating, Wheat [2, 13] | Plant response rating, Wheat [2, 14] | Plant response rating, Kochia (kochia (Kochia scoparia); [12]) | Plant response rating, Kochia (kochia (Kochia scoparia); [13]) | Plant response rating, Kochia (kochia (Kochia scoparia); [14]) | Kochia plant response rating (kochia (Kochia scoparia); [15]) | Plant response rating, Foxtail, Giant [3, 12] | Plant response rating, Foxtail, Giant [3, 13] | Plant response rating, Foxtail, Giant [3, 14] | Foxtail, Giant plant response rating [3, 15] | Plant response rating, Ragweed [4, 12] | Plant response rating, Ragweed [4, 13] | Plant response rating, Ragweed [4, 14] | Ragweed plant response rating [4, 15] | Plant response rating, Barnyardgrass [5, 12] | Plant response rating, Barnyardgrass [5, 13] | also measured |
| --- | --- | --- | --- | --- | --- | --- | --- | --- | --- | --- | --- | --- | --- | --- | --- | --- | --- | --- | --- | --- | --- |
| Fc1ccnc(-c2ccccc2Oc2ncc(Cl)cn2)c1 [Compound 175] | 0 | 0 | 0 | 0 | 0 | 0 | 0 | 30 | 0 | 0 | 0 | 0 | 0 | 0 | 0 | 30 | 20 | 0 | 0 | 10 | Plant response rating, Barnyardgrass [5, 14]: 0; Barnyardgrass plant response rating [5, 15]: 0; Plant response rating, Corn (corn (Zea mays); [13]): 0; Plant response rating, Corn (corn (Zea mays); [14]): 0; Plant response rating, Pigweed [6, 12]: 0; Plant response rating, Pigweed [6, 13]: 60; Plant response rating, Pigweed [6, 14]: 50; Pigweed plant response rating [6, 15]: 70; Plant response rating, Galium [7, 13]: 40; Plant response rating, Galium [7, 14]: 20; Plant response rating, Blackgrass [8, 13]: 0; Plant response rating, Blackgrass [8, 14]: 0; Ducksalad plant response rating [9]: 0; Barnyardgrass plant response rating [10]: 0; Rice plant response rating (rice (Oryza sativa)): 0; Sedge, Umbrella plant response rating [11]: 0 |
| FC(F)(F)COc1cc(-c2ccccc2Oc2ncc(Cl)cn2)on1 [Compound 176] | 0 | 10 | 0 | 10 | 0 | 0 | 0 | 100 | 30 | 20 | 60 | 50 | 20 | 90 | 0 | 20 | 10 | 0 | 10 | 30 | Plant response rating, Barnyardgrass [5, 14]: 10; Barnyardgrass plant response rating [5, 15]: 50; Plant response rating, Corn (corn (Zea mays); [13]): 30; Plant response rating, Corn (corn (Zea mays); [14]): 10; Plant response rating, Pigweed [6, 12]: 30; Plant response rating, Pigweed [6, 13]: 100; Plant response rating, Pigweed [6, 14]: 90; Pigweed plant response rating [6, 15]: 90; Plant response rating, Galium [7, 13]: 90; Plant response rating, Galium [7, 14]: 30; Plant response rating, Blackgrass [8, 13]: 30; Plant response rating, Blackgrass [8, 14]: 0; Ducksalad plant response rating [9]: 75; Barnyardgrass plant response rating [10]: 0; Rice plant response rating (rice (Oryza sativa)): 0; Sedge, Umbrella plant response rating [11]: 30 |
